Measurements from US9073895B2 (Boehringer Ingelheim International GmbH, priority 2010, dated 2015).

Experiments:
[1] = biological target: T1, recombinant human FLAP protein (Homo sapiens, UniProt P20292); assay: FLAP binding assay (SPA, displacement of [125I]L-691,831); details: membranes of sf9 cells expressing human FLAP, [125I]L-691,831 probe; read-out: hFLAP binding IC50
T1 construct: made in house; host or cells: Sf9 insect cells (membrane fraction, 100,000 x g pellet)
T1 sequence (P20292 1-161): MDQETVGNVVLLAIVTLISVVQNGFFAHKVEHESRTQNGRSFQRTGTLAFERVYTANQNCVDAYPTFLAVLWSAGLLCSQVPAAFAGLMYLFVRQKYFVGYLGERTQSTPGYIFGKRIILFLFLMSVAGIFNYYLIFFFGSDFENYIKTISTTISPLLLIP
Description: Compounds are assessed for the ability to bind to FLAP in a binding assay that measures compound-specific displacement of an iodinated (^125I) FLAP inhibitor via a Scintillation Proximity Assay format (adapted from S. Charleson et al., Mol. Pharmacol., 1992, 41, 873-879).
Cell pellets produced from sf9 insect cells expressing recombinant human FLAP protein are resuspended in buffer A [15 mM Tris-HCl (pH 7.5), 2 mM MgCl2, 0.3 mM EDTA, 1 mM PMSF]. The cells are lysed with a Dounce homogenizer and the material is centrifuged at 10,000×g for 10 minutes. The supernatant is then collected and centrifuged at 100,000×g for 60 minutes. To prepare membrane protein for an assay, an aliquot of the 100,000×g pellet is resuspended in 1 ml of buffer A, Dounce homogenized, and finally subjected to polytron mixing (30 seconds). Membrane protein (25 μl, 5 μg) is mixed with WGA SPA beads (Amersham) and stirred for 1 h. To an assay plate (Perkin Elmer FlexiPlate) is added 25 μl of test compound prepared in Binding buffer [100 mM Tris (pH 7.5), 140 mM NaCl, 5% glycerol, 2 mM EDTA, 0.5 mM TCEP, 0.05% Tween 20], 25 μl of [^125I]L-691,831 (an iodinated analog of MK-591, Charleson et al. Mol. Pharmacol., 41, 873-879, 1992) and finally 50 μl of the bead/protein mixture. (final concentrations: beads, 200 μg/well; protein, 5μg/well; [^125I] probe, 0 08 nM/well(17 nCi/well). The plates are shaken for 2 h before reading on a Microbeta plate reader. Non-specific binding is determined by the addition of 10 μM cold L-691,831 compound.

[2] = system: synthesis of LTB4 in human whole blood; assay: Human whole blood LTB4 production inhibition assay; format: cell-based; details: heparinized human whole blood, calcimycin 20 μM, plasma LTB4; read-out: HuWB IC50
Description: Compounds are additionally tested in a human whole blood assay to determine their ability to inhibit the synthesis of LTB4 in a cellular system. Compounds are combined with heparinized human whole blood and incubated for 15 minutes at 37° C. Calcimycin (20 μM final, prepared in phosphate-buffered saline, pH 7.4) is then added and the mixture is incubated for another 30 minutes at 37° C. The samples are centrifuged for 5 min at low speed (1500×g) and the plasma layer is removed. Plasma LTB4 concentrations are then measured using an antibody-based homogenous time-resolved fluorescence method (CisBio, Bedford, Mass.).

Structure (SMILES) | IC50 [1] [nM] | IC50 [2] [nM]
Nc1ncc(-c2ccc(C3(C(=O)Nc4ccc(Oc5ccccc5)cc4)CCOCC3)cc2)cn1 [Example 1, 4-[4-(2-aminopyrimidin-5-yl)phenyl]-N-(4-phenoxyphenyl)tetrahydro-2H-pyran-4-carboxamide] | 16 | 461
Nc1ncc(-c2ccc(C3(C(=O)Nc4ccc(C5CCCCC5)cc4)CCOCC3)cc2)cn1 [Example 5, 4-[4-(2-aminopyrimidin-5-yl)phenyl]-N-(4-cyclohexylphenyl)tetrahydro-2H-pyran-4-carboxamide] | 101 | 2970
Nc1ncc(-c2ccc(C3(C(=O)Nc4cnc5ccccc5c4)CCOCC3)cc2)cn1 [Example 11, 4-[4-(2-aminopyrimidin-5-yl)phenyl]-N-(quinolin-3-yl)tetrahydro-2H-pyran-4-carboxamide] | 21.9 | > 3000
Nc1ncc(-c2ccc(C3(C(=O)Nc4ccccn4)CCCCC3)cc2)cn1 [Example 160, 1-[4-(2-aminopyrimidin-5-yl)phenyl]-N-(pyridin-2-yl)cyclohexanecarboxamide] | 13 | 
CCCCCc1ccnc(NC(=O)C2(c3ccc(-c4cnc(N)nc4)cc3)CCOCC2)c1 [Example 161, 4-[4-(2-aminopyrimidin-5-yl)phenyl]-N-(4-pentylpyridin-2-yl)tetrahydro-2H-pyran-4-carboxamide] | 31 | 
Nc1ncc(-c2ccc(C3(C(=O)Nc4ccccc4-c4ccccc4)CCC3)cc2)cn1 [Example 202, 1-[4-(2-aminopyrimidin-5-yl)phenyl]-N-(biphenyl-2-yl)cyclobutanecarboxamide] | 56.5 | 
Cc1nc(NC(=O)C2(c3ccc(-c4cnc(N)nc4)cc3)CCC2)sc1C [Example 209, 1-[4-(2-aminopyrimidin-5-yl)phenyl]-N-(4,5-dimethyl-1,3-thiazol-2-yl)cyclobutanecarboxamide] | 13 | 
Cc1cnc(NC(=O)C2(c3ccc(-c4cnc(N)nc4)cc3)CCC2)s1 [Example 211, 1-[4-(2-aminopyrimidin-5-yl)phenyl]-N-(5-methyl-1,3-thiazol-2-yl)cyclobutanecarboxamide] | 23.5 | 
Cc1cc(NC(=O)C2(c3ccc(-c4cnc(N)nc4)cc3)CCC2)nc(C)n1 [Example 212, 1-[4-(2-aminopyrimidin-5-yl)phenyl]-N-(2,6-dimethylpyrimidin-4-yl)cyclobutanecarboxamide] | 15 | 
Nc1ncc(-c2ccc(C3(C(=O)Nc4ccnc(O)c4)CCC3)cc2)cn1 [Example 220, 1-[4-(2-aminopyrimidin-5-yl)phenyl]-N-(2-hydroxypyridin-4-yl)cyclobutanecarboxamide] | 470 | 
CC(C)C(C)(C(=O)Nc1ccncc1)c1ccc(-c2ccc(NCCO)nc2)cc1 (stereo not shown) [Example 226, 2-(4-{6-[(2-hydroxyethyl)amino]pyridin-3-yl}phenyl)-2,3-dimethyl-N-(pyridin-4-yl)butanamide] | 250 | 
NC(=O)c1ccc(NC(=O)C2(c3ccc(-c4cnc(N)nc4)cc3)CCC2)cn1 [Example 240, 5-[({1-[4-(2-aminopyrimidin-5-yl)phenyl]cyclobutyl}carbonyl)amino]pyridine-2-carboxamide] | 4.4 | 
Nc1ncc(-c2ccc(C3(C(=O)Nc4nc(-c5ccccc5)ns4)CCC3)cc2)cn1 [Example 242, 1-[4-(2-aminopyrimidin-5-yl)phenyl]-N-(3-phenyl-1,2,4-thiadiazol-5-yl)cyclobutanecarboxamide] | 3.95 | 
Nc1ncc(-c2ccc(C3(C(=O)Nc4n[nH]c(-c5ccccc5)n4)CCC3)cc2)cn1 [Example 243, 1-[4-(2-aminopyrimidin-5-yl)phenyl]-N-(5-phenyl-1H-1,2,4-triazol-3-yl)cyclobutanecarboxamide] | 22 | 
Nc1ncc(-c2ccc(C3(C(=O)Nc4ccc(N5CCOCC5)cc4)CCC3)cc2)cn1 [Example 246, 1-[4-(2-aminopyrimidin-5-yl)phenyl]-N-[4-(morpholin-4-yl)phenyl]cyclobutanecarboxamide] | 34 | 
Cc1nc(-c2ccc(NC(=O)C(c3ccc(-c4cnc(N)nc4)cc3)C3CCCC3)nc2)cs1 (stereo not shown) [Example 248, 2-[4-(2-aminopyrimidin-5-yl)phenyl]-2-cyclopentyl-N-[5-(2-methyl-1,3-thiazol-4-yl)pyridin-2-yl]acetamide] | 240 | 
Cc1ccc(NC(=O)C2(c3ccc(-c4cnc(N)nc4)cc3)CCC2)cn1 [Example 249, 1-[4-(2-aminopyrimidin-5-yl)phenyl]-N-(6-methylpyridin-3-yl)cyclobutanecarboxamide] | 22.5 | 

Next, values leading:

IC50 [1] [nM] | IC50 [2] [nM] | Structure (SMILES)
210 | 1370 | COc1ccc(NC(=O)C2(c3ccc(-c4cnc(N)nc4)cc3)CCOCC2)cn1 [Example 2, 4-[4-(2-aminopyrimidin-5-yl)phenyl]-N-(6-methoxypyridin-3-yl)tetrahydro-2H-pyran-4-carboxamide]
11.2 | 328 | N#Cc1ccc(NC(=O)C2(c3ccc(-c4cnc(N)nc4)cc3)CCOCC2)cc1Cl [Example 3, 4-[4-(2-aminopyrimidin-5-yl)phenyl]-N-(3-chloro-4-cyanophenyl)tetrahydro-2H-pyran-4-carboxamide]
38.5 | 808 | Cc1nnnn1-c1ccc(NC(=O)C2(c3ccc(-c4cnc(N)nc4)cc3)CCOCC2)cc1 [Example 4, 4-[4-(2-aminopyrimidin-5-yl)phenyl]-N-[4-(5-methyl-1H-tetrazol-1-yl)phenyl]tetrahydro-2H-pyran-4-carboxamide]
10.7 | 2660 | COc1ccc2nc(NC(=O)C3(c4ccc(-c5cnc(N)nc5)cc4)CCOCC3)sc2c1 [Example 7, 4-[4-(2-aminopyrimidin-5-yl)phenyl]-N-(6-methoxy-1,3-benzothiazol-2-yl)tetrahydro-2H-pyran-4-carboxamide]
25 | 3560 | Cc1ccc2nc(NC(=O)C3(c4ccc(-c5cnc(N)nc5)cc4)CCOCC3)sc2c1 [Example 8, 4-[4-(2-aminopyrimidin-5-yl)phenyl]-N-(6-methyl-1,3-benzothiazol-2-yl)tetrahydro-2H-pyran-4-carboxamide]
410 |  | Nc1ncc(-c2ccc(C3(C(=O)Nc4ccc(C(=O)O)cn4)CCOCC3)cc2)cn1 [Example 157, 6-[({4-[4-(2-aminopyrimidin-5-yl)phenyl]tetrahydro-2H-pyran-4-yl}carbonyl)amino]pyridine-3-carboxylic acid]
420 |  | CC(C)(O)c1ccc(NC(=O)C2(c3ccc(-c4cnc(N)nc4)cc3)CCOCC2)nc1 [Example 159, 4-[4-(2-aminopyrimidin-5-yl)phenyl]-N-[5-(2-hydroxypropan-2-yl)pyridin-2-yl]tetrahydro-2H-pyran-4-carboxamide]
110 |  | COc1nc(-c2ccc(C3(C(=O)Nc4ccc(-c5csc(C)n5)cn4)CCOCC3)cc2)cnc1N [Example 181, 4-[4-(5-amino-6-methoypyrazin-2-yl)phenyl]-N-[5-(2-methyl-1,3-thiazol-4-yl)pyridin-2-yl]tetrahydro-2H-pyran-4-carboxamide]
270 |  | CC(=O)Nc1ccc(-c2ccc(C3(C(=O)Nc4ccc(-c5csc(C)n5)cn4)CCOCC3)cc2)cn1 [Example 206, 4-{4-[6-(acetylamino)pyridin-3-yl]phenyl}-N-[5-(2-methyl-1,3-thiazol-4-yl)pyridin-2-yl]tetrahydro-2H-pyran-4-carboxamide]
230 |  | COCCNc1ncc(-c2ccc(C3(C(=O)Nc4ccc(-c5csc(C)n5)cn4)CCOCC3)cc2)cn1 [Example 207, 4-(4-{2-[(2-methoxyethyl)amino]pyrimidin-5-yl}phenyl)-N-[5-(2-methyl-1,3-thiazol-4-yl)pyridin-2-yl]tetrahydro-2H-pyran-4-carboxamide]
10.8 |  | COc1ccc(-c2nc(NC(=O)C3(c4ccc(-c5cnc(N)nc5)cc4)CCC3)n[nH]2)cc1 [Example 244, 1-[4-(2-aminopyrimidin-5-yl)phenyl]-N-[5-(4-methoxyphenyl)-1H-1,2,4-triazol-3-yl]cyclobutanecarboxamide]
16 |  | Cc1nc(-c2ccc(NC(=O)C3(c4ccc(-c5cnc(N)nc5)cc4)CC3)nc2)cs1 [Example 251, 1-[4-(2-aminopyrimidin-5-yl)phenyl]-N-[5-(2-methyl-1,3-thiazol-4-yl)pyridin-2-yl]cyclopropanecarboxamide]
